Article PMC5666424, “Marine-Derived 2-Aminoimidazolone Alkaloids. Leucettamine B-Related Polyandrocarpamines Inhibit Mammalian and Protozoan DYRK & CLK Kinases” (Marine Drugs, 2017)

Assays:
Assay in all cases: KinomeScan
Assay type in all cases: binding
Details in all cases: 1 μM
KIT = target: T1, KIT (Homo sapiens, UniProt P10721)
T1 construct: purchased DiscoverX (KINOMEscan)
Method: (§1) Assays were performed essentially as described previously. For most assays, kinase-tagged T7 phage strains were grown in parallel in 24-well blocks in an E. coli host derived from the BL21 strain. E. coli were grown to log-phase and infected with T7 phage from a frozen stock (multiplicity of infection ~0.1) and incubated with shaking at 32 °C until lysis (~90 min). The lysates were centrifuged (6000× g) and filtered (0.2 μm) to remove cell debris. The remaining kinases were produced in HEK-293 cells and subsequently tagged with DNA for qPCR detection. […] The liganded beads were blocked with excess biotin and washed with blocking buffer (SeaBlock (Pierce, ThermoFisher Scientific, Illkirch, France), 1% BSA, 0.05% Tween 20, 1 mM DTT) to remove unbound ligand and to reduce non-specific phage binding. […] An 11-point threefold serial dilution of each test compound was prepared in 100% DMSO at 100× final test concentration which and subsequently diluted to 1× in the assay. All reactions were performed in polystyrene 96-well plates in a final volume of 0.135 mL. […] The kinase concentration in the eluates was measured by qPCR.

AXL = target: T2, AXL (Homo sapiens, UniProt P30530)
T2 construct: purchased DiscoverX (KINOMEscan)
Method: as §1

STK33 = target: T3, STK33 (Homo sapiens, UniProt Q9BYT3)
T3 construct: purchased DiscoverX (KINOMEscan)
Method: as §1

LOK = target: T4, LOK (Homo sapiens, UniProt O94804)
T4 construct: purchased DiscoverX (KINOMEscan)
Method: as §1

FLT3 = target: T5, FLT3 (Homo sapiens, UniProt P36888)
T5 construct: purchased DiscoverX (KINOMEscan)
Method: as §1

LTK = target: T6, LTK (Homo sapiens, UniProt P29376)
T6 construct: purchased DiscoverX (KINOMEscan)
Method: as §1

[1] = target: T7, ABL1(M351T)-phosphorylated (Homo sapiens, UniProt P00519, M351T)
T7 construct: purchased DiscoverX (KINOMEscan)
Method: as §1

MAK = target: T8, MAK (Homo sapiens, UniProt P20794)
T8 construct: purchased DiscoverX (KINOMEscan)
Method: as §1

MEK2 = target: T9, MEK2 (Homo sapiens, UniProt P36507)
T9 construct: purchased DiscoverX (KINOMEscan)
Method: as §1

KIT(V559D) = target: T10, KIT(V559D) (Homo sapiens, UniProt P10721, V559D)
T10 construct: purchased DiscoverX (KINOMEscan)
Method: as §1

AURKC = target: T11, AURKC (Homo sapiens, UniProt Q9UQB9)
T11 construct: purchased DiscoverX (KINOMEscan)
Method: as §1

MET = target: T12, MET (Homo sapiens, UniProt P08581)
T12 construct: purchased DiscoverX (KINOMEscan)
Method: as §1

DYRK1A = DYRK1A (Homo sapiens, UniProt Q13627)
Method: as §1

NLK = target: T13, NLK (Homo sapiens, UniProt Q9UBE8)
T13 construct: purchased DiscoverX (KINOMEscan)
Method: as §1

ERK5 = target: T14, ERK5 (Homo sapiens, UniProt Q13164)
T14 construct: purchased DiscoverX (KINOMEscan)
Method: as §1

CHEK1 = target: T15, CHEK1 (Homo sapiens, UniProt O14757)
T15 construct: purchased DiscoverX (KINOMEscan)
Method: as §1

TRPM6 = target: T16, TRPM6 (Homo sapiens, UniProt Q9BX84)
T16 construct: purchased DiscoverX (KINOMEscan)
Method: as §1

BIKE = target: T17, BIKE (Homo sapiens, UniProt Q9NSY1)
T17 construct: purchased DiscoverX (KINOMEscan)
Method: as §1

TLK2 = target: T18, TLK2 (Homo sapiens, UniProt Q86UE8)
T18 construct: purchased DiscoverX (KINOMEscan)
Method: as §1

FLT3(K663Q) = target: T19, FLT3(K663Q) (Homo sapiens, UniProt P36888, K663Q)
T19 construct: purchased DiscoverX (KINOMEscan)
Method: as §1

MERTK = target: T20, MERTK (Homo sapiens, UniProt Q12866)
T20 construct: purchased DiscoverX (KINOMEscan)
Method: as §1

NEK1 = target: T21, NEK1 (Homo sapiens, UniProt Q96PY6)
T21 construct: purchased DiscoverX (KINOMEscan)
Method: as §1

FGFR2 = target: T22, FGFR2 (Homo sapiens, UniProt P21802)
T22 construct: purchased DiscoverX (KINOMEscan)
Method: as §1

CDK8 = target: T23, CDK8 (Homo sapiens, UniProt P49336)
T23 construct: purchased DiscoverX (KINOMEscan)
Method: as §1

EGFR = target: T24, EGFR (Homo sapiens, UniProt P00533)
T24 construct: purchased DiscoverX (KINOMEscan)
Method: as §1

EPHB2 = target: T25, EPHB2 (Homo sapiens, UniProt P29323)
T25 construct: purchased DiscoverX (KINOMEscan)
Method: as §1

FLT3(D835H) = target: T26, FLT3(D835H) (Homo sapiens, UniProt P36888, D835H)
T26 construct: purchased DiscoverX (KINOMEscan)
Method: as §1

CSNK2A1 = target: T27, CSNK2A1 (Homo sapiens, UniProt P68400)
T27 construct: purchased DiscoverX (KINOMEscan)
Method: as §1

CDK5 = target: T28, CDK5 (Homo sapiens, UniProt Q00535)
T28 construct: purchased DiscoverX (KINOMEscan)
Method: as §1

CSNK1D = target: T29, CSNK1D (Homo sapiens, UniProt P48730)
T29 construct: purchased DiscoverX (KINOMEscan)
Method: as §1

DDR2 = target: T30, DDR2 (Homo sapiens, UniProt Q16832)
T30 construct: purchased DiscoverX (KINOMEscan)
Method: as §1

JNK1 = target: T31, JNK1 (Homo sapiens, UniProt P45983)
T31 construct: purchased DiscoverX (KINOMEscan)
Method: as §1

DAPK2 = target: T32, DAPK2 (Homo sapiens, UniProt Q9UIK4)
T32 construct: purchased DiscoverX (KINOMEscan)
Method: as §1

NDR1 = target: T33, NDR1 (Homo sapiens, UniProt Q15208)
T33 construct: purchased DiscoverX (KINOMEscan)
Method: as §1

GRK4 = target: T34, GRK4 (Homo sapiens, UniProt P32298)
T34 construct: purchased DiscoverX (KINOMEscan)
Method: as §1

STK35 = target: T35, STK35 (Homo sapiens, UniProt Q8TDR2)
T35 construct: purchased DiscoverX (KINOMEscan)
Method: as §1

CDKL5 = target: T36, CDKL5 (Homo sapiens, UniProt O76039)
T36 construct: purchased DiscoverX (KINOMEscan)
Method: as §1

ERN1 = target: T37, ERN1 (Homo sapiens, UniProt O75460)
T37 construct: purchased DiscoverX (KINOMEscan)
Method: as §1

T2 sequence (P30530 26-894): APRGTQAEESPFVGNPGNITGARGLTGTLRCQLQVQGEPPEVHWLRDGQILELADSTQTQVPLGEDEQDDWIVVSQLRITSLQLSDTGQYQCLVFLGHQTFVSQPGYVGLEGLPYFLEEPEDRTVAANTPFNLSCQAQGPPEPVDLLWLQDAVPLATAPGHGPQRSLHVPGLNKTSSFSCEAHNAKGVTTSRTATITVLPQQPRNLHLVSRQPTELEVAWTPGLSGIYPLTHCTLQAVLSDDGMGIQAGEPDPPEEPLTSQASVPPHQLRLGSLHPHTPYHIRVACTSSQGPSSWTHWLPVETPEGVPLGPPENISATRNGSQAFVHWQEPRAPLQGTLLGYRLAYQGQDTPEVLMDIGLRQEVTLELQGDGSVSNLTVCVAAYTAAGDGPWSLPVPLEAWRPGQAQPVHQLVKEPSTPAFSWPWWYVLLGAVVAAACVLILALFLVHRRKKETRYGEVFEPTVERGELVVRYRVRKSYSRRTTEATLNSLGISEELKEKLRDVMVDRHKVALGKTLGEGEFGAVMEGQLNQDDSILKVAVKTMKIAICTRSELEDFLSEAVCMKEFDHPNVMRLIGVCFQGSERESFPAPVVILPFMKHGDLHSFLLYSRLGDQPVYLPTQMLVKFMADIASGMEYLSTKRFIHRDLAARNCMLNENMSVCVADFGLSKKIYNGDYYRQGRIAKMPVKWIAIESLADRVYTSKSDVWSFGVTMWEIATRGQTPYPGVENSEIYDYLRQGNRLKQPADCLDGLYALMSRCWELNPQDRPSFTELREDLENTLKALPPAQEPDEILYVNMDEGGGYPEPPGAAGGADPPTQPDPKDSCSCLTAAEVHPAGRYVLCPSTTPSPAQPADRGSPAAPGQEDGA
T4 sequence (O94804 whole entry): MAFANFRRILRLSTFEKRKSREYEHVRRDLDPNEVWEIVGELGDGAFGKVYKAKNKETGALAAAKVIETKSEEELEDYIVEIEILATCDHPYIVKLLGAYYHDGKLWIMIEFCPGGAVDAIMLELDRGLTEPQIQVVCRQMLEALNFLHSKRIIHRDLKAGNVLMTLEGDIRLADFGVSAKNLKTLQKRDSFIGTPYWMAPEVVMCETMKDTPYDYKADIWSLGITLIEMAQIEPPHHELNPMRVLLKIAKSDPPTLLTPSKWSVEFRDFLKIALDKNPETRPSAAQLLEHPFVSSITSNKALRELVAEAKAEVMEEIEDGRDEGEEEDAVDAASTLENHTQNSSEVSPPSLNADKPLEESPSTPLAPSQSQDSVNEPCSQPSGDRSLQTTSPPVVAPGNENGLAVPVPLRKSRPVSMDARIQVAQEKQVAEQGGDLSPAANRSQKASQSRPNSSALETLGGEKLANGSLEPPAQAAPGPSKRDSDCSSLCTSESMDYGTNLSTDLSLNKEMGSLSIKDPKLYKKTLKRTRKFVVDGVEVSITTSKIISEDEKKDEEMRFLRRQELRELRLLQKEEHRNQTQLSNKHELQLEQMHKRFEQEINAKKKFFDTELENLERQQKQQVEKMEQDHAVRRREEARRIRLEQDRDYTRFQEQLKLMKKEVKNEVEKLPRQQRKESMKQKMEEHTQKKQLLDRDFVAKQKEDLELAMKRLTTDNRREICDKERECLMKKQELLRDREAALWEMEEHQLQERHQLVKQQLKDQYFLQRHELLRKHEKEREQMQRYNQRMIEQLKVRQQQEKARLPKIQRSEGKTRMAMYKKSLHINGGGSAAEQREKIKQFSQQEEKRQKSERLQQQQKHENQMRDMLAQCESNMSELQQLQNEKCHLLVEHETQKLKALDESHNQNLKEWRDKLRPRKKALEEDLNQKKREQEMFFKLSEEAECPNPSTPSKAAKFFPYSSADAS
T30 sequence (Q16832 22-855): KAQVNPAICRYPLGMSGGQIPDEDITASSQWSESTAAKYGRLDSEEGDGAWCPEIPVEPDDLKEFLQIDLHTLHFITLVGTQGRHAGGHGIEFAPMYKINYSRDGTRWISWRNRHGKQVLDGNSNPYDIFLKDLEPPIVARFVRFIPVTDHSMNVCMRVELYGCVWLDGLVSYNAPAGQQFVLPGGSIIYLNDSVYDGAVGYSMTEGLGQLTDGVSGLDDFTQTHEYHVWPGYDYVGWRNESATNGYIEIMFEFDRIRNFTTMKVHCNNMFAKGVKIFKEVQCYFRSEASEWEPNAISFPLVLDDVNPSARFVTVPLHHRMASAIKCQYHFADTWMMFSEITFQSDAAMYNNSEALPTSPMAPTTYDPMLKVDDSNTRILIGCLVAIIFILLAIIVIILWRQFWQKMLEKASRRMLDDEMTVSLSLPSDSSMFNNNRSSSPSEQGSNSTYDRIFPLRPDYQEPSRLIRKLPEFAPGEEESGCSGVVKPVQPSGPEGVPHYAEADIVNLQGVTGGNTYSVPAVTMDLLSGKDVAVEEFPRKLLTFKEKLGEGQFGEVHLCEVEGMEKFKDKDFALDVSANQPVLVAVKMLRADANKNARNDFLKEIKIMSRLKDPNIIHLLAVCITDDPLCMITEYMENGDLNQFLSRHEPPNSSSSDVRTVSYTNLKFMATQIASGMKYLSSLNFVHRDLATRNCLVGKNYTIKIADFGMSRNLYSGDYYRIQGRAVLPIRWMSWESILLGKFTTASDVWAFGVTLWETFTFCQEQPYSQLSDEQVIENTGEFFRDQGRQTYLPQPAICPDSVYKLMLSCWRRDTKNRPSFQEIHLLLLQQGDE
T14 sequence (Q13164 whole entry): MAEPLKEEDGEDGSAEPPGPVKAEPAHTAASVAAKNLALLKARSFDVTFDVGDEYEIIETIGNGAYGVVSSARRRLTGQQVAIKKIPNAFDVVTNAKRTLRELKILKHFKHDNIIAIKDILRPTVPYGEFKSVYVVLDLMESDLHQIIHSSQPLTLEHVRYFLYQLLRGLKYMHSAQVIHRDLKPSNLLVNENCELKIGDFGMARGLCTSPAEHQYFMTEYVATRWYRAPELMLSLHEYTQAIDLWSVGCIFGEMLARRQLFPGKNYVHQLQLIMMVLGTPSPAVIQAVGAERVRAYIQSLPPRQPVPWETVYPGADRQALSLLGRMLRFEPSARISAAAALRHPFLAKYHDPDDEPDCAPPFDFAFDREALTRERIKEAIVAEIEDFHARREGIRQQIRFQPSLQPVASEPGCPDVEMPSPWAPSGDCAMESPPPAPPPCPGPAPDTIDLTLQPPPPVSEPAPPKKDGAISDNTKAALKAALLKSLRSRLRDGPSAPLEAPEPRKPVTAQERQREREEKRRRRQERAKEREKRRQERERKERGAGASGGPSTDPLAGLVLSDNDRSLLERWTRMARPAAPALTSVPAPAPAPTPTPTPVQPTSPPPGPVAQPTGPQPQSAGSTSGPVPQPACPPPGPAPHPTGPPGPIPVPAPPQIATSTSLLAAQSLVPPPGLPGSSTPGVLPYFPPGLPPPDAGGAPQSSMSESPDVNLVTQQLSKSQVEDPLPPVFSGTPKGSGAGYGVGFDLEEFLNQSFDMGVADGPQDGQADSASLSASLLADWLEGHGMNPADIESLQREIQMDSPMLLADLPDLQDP
T35 sequence (Q8TDR2 whole entry): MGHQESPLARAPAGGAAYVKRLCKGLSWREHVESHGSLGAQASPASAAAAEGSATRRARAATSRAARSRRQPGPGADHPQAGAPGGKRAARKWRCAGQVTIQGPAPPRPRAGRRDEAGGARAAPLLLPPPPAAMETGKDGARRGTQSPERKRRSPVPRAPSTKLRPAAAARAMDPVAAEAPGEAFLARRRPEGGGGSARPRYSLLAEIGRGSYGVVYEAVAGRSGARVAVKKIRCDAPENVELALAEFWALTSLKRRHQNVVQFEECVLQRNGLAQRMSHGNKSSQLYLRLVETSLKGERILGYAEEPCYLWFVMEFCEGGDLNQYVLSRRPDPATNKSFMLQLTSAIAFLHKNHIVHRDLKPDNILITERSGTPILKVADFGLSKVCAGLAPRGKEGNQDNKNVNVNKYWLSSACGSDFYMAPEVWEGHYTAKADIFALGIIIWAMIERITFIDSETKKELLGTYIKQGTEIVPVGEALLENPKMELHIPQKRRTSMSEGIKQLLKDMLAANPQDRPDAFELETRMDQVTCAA
T18 sequence (Q86UE8 whole entry): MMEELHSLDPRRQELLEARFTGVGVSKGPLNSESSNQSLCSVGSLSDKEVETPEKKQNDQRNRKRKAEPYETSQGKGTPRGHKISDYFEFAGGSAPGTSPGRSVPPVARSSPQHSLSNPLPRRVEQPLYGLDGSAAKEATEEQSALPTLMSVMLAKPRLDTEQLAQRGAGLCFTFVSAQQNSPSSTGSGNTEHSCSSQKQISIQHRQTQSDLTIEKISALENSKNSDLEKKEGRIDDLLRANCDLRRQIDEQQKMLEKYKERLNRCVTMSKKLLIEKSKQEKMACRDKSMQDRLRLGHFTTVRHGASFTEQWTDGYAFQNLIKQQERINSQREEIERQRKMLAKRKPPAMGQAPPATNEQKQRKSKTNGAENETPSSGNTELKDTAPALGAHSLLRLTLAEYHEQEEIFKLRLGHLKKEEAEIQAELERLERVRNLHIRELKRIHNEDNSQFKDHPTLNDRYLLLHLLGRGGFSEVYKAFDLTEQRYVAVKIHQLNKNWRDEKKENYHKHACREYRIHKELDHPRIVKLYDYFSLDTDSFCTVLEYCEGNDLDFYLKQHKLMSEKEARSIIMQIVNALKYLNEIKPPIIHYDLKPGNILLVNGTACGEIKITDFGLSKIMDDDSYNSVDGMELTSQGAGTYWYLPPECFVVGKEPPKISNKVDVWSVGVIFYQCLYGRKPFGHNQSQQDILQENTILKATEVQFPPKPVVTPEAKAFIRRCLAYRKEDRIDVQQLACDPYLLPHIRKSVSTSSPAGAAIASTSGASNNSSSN

Which results are given for `COc1cc(/C=C2\N=C(N)NC2=O)ccc1O` [Polyandrocarpamine A]?
Score (KIT): 87; Score (AXL): 100; Score (STK33): 100; Score (LOK): 100; Score (FLT3): 100; Score (LTK): 100; Score [1]: 100; Score (MAK): 91; Score (MEK2): 100; Score (KIT(V559D)): 91; Score (AURKC): 99; Score (MET): 100; Score (DYRK1A): 3; Score (NLK): 100; Score (ERK5): 100; Score (CHEK1): 100; Score (TRPM6): 100; Score (BIKE): 70; Score (TLK2): 100; Score (FLT3(K663Q)): 100; Score (MERTK): 100; Score (NEK1): 100; Score (FGFR2): 100; Score (CDK8): 100; Score (EGFR): 99; Score (EPHB2): 79; Score (FLT3(D835H)): 94; Score (CSNK2A1): 12; Score (CDK5): 100; Score (CSNK1D): 70; Score (DDR2): 69; Score (JNK1): 100; Score (DAPK2): 58; Score (NDR1): 100; Score (GRK4): 100; Score (STK35): 95; Score (CDKL5): 100; Score (ERN1): 100
